Reference: patent US5550131A, “2-piperazinone compounds and their use” (Takeda Chemical Industries, Ltd., priority 1993, dated 1996)

Key:
[1] = tested on: guinea pig platelet aggregation by ADP; assay: Determination of platelet aggregation in vitro (by ADP), guinea pig platelet rich plasma; type: cell-based; conditions: Cavia porcellus, guinea pig PRP, n = 3, ADP 0.6-1 μM, 37° C., read-out: Inhibition of platelet aggregation by ADP, IC50, guinea pigs
Description: (§1) Method […] The sodium citrate--supplemented blood was centrifuged at 950 rpm for 10 minutes and 2,000 rpm for 10 minutes respectively at room temperature to obtain platelet rich plasma (PRP) and platelet poor plasma (PPP). PRP was diluted with PPP to adjust the number of platelets to be 500,000/μl. Platelet aggregation measured spectroscopically in accordance with Born's method (Nature 194: 927, 1962) using an aggregometer (HEMA TRACER VI Toa Iyo Denshi). The PRP (250 μl) was incubated at 37° C. for 2 minutes, to which was then added 25 μl of a test drug solution. Two minutes later, 25 μl of an agent for causing agglutination. The effect of the test drug was shown by the inhibition rate of the maximum aggregation rate of the test group against that of the control group. ADP was used in the minimum concentration (0.6-1 μM) capable of obtaining maximum aggregation. Inhibitory effect on platelet aggregation by ADP of the compounds of Working Examples

[2] = tested on: human platelet aggregation by ADP; assay: Determination of platelet aggregation in vitro (by ADP), human platelet rich plasma; type: cell-based; conditions: human PRP, n = 3, ADP 0.6-1 μM, 37° C., read-out: Inhibition of platelet aggregation by ADP, IC50, human
Description: as §1

[3] = tested on: activated platelets of guinea pigs; assay: Binding experiment in vitro: specific binding of 125I-fibrinogen to activated platelets of guinea pigs; set-up: species or system guinea pig; conditions: n=3; 125I-fibrinogen 0.1 μM; ADP 5×10^-5 M; 2 hours at room temperature; read-out: IC50 value against the specific binding of 125I-fibrinogen to activated platelets of guinea pigs
Description: Method Washed platelets were prepared from sodium citrate--supplemented blood of guinea pig, which were suspended in a Hepes Tyrode solution (pH 7.5) to adjust the number of platelets to be 500,000/μl. To 70 μl of this suspension was added 10 μl of an ADP solution (final concentration: 5×10^-5 M), and the mixture was left standing for 15 minutes at room temperature. To the mixture were added a solution of the test drug and 80 μl of a ^125 I-fibrinogen solution (final concentration: 0.1 μM), which was left standing for 2 hours at room temperature. Onto a 20% sucrose buffer solution was overlaid 100 μl of the reaction mixture, which was subjected to centrifuge at 3,000 rpm to separate platelet-adhesive ^125 I-fibrinogen from non-adhesive one. The radioactivity of the platelet-adhesive ^125 I-fibrinogen was determined. From the value obtained from the test groups against specific binding of the control group (processed with the buffer solution), the adhesion inhibiting ratio was determined. Action of the compound of Working Example 1 against the specific binding of ^125 I-fibrinogen to activated platelets of guinea pigs.

[4] = tested on: platelet aggregation caused by ADP; assay: Ex vivo platelet aggregation experiment (ADP) after oral administration to guinea pigs; type: in vivo, guinea pig
Description: Method After fasting overnight, guinea pigs were orally administered with a test drug solution (2 ml/kg). Blood was collected from the animals, under anesthesia with pentobarbital, after 1, 4 and 24 hours respectively. By the method described above, PRP was prepared and the platelet aggregation caused by ADP was measured. The rate of inhibition of aggregation was determined by the aggregation rate obtained in the test groups against that obtained in the control. The test drug was administered orally as a solution in distilled water. ADP aggregation inhibiting action by the compound of working Example 1 in guinea pigs

| SMILES | IC50 [1] | IC50 [2] | other results |
| --- | --- | --- | --- |
| COC(=O)C[C@H]1C(=O)N(CC(=O)O)CCN1C(=O)[C@H](Cc1ccc(O)cc1)NC(=O)c1ccc(C(=N)N)cc1.Cl [Working Example 1, (S)-4-(4-Amidinobenzoyl-L-Tyrosyl)-3-Methoxycarbonylmethyl-2-Oxopiperazine-1-Acetic Acid Hydrochloride] | 37 nM | 20 nM | IC50 [3]: 2.7 nM; ADP aggregation inhibition rate ([4]; 3 mg/kg p.o., after 1 hour, n=4): 100%; ADP aggregation inhibition rate ([4]; 3 mg/kg p.o., after 4 hour, n=4): 100%; ADP aggregation inhibition rate ([4]; 3 mg/kg p.o., after 24 hour, n=3): 100% |
| COC(=O)C[C@H]1C(=O)N(CC(=O)O)CCN1C(=O)[C@H](Cc1ccc(OC)cc1)NC(=O)c1ccc(C(=N)N)cc1 [Working Example 3, (S)-4-(4-Amidinobenzoyl-O-Methyl-L-Tyrosyl)-3-Methoxycarbonylmethyl-2-Oxopiperazine-1 -Acetic Acid] | 15 nM | 10 nM | ADP aggregation inhibition rate ([4]; 1 mg/kg p.o., after 1 hour, n=6): 95%; ADP aggregation inhibition rate ([4]; 1 mg/kg p.o., after 4 hour, n=6): 100% |
| CCOc1ccc(C[C@H](NC(=O)c2ccc(C(=N)N)cc2)C(=O)N2CCN(CC(=O)O)C(=O)[C@@H]2CC(=O)OC)cc1 [Working Example 4, (S)-4-(4-amidinobenzoyl-O-ethyl-L-tyrosyl)-3-methoxycarbonylmethyl-2-oxopiperazine-1-acetic acid] | 120 nM | – | – |
| CCCOc1ccc(C[C@H](NC(=O)c2ccc(C(=N)N)cc2)C(=O)N2CCN(CC(=O)O)C(=O)[C@@H]2CC(=O)OC)cc1 [Working Example 5] | 34 nM | 40 nM | – |
| C=CCOc1ccc(C[C@H](NC(=O)c2ccc(C(=N)N)cc2)C(=O)N2CCN(CC(=O)O)C(=O)[C@@H]2CC(=O)OC)cc1 [Working Example 18] | 26 nM | 20 nM | – |
| COC(=O)C[C@H]1C(=O)N(CC(=O)O)CCN1C(=O)[C@H](Cc1ccc(F)cc1)NC(=O)c1ccc(C(=N)N)cc1 [Working Example 21] | 38 nM | 26 nM | – |
| COC(=O)C[C@H]1C(=O)N(CC(=O)O)CCN1C(=O)[C@H](Cc1ccc(O)c(F)c1)NC(=O)c1ccc(C(=N)N)cc1 [Working Example 22] | 47 nM | 18 nM | – |

Second part, led by results:

| IC50 [1] | IC50 [2] | SMILES | other results |
| --- | --- | --- | --- |
| 46 nM | 24 nM | COC(=O)C[C@H]1C(=O)N(CC(=O)O)CCN1C(=O)C(Cc1ccc(O)c(O)c1)NC(=O)c1ccc(C(=N)N)cc1 (mixture of isomers) [Working Example 24] | – |
| 38 nM | 17 nM | COC(=O)C[C@H]1C(=O)N(CC(=O)O)CCN1C(=O)[C@H](Cc1ccc(O)cc1F)NC(=O)c1ccc(C(=N)N)cc1 [Working Example 23] | – |
| 18 nM | 12 nM | COC(=O)C[C@H]1C(=O)N(CC(=O)O)CCN1C(=O)[C@H](Cc1ccc(OC)cc1)NC(=O)c1ccc(CCN)cc1 [Working Example 31] | – |
